From PMC10586439 (ACS Omega, 2023)
Read-outs that look alike come from different tables or passages of the source.

Columns and labels:
[1] = system: MDA-MB-231 human breast carcinoma cell line; assay: MTT cytotoxicity assay against MDA-MB-231 breast carcinoma cell line; assay type: cell-based
[2] = system: normal MCF-10A breast cells; assay: MTT cytotoxicity assay on normal MCF-10A breast cells; assay type: cell-based; conditions: for IC50: Homo sapiens, MCF-10A, read-out: IC50 value (μM) MCF-10A
β-tubulin = β-tubulin (Homo sapiens, UniProt P07437+P68363); assay: β-Tubulin polymerization inhibition; assay type: biochemical; conditions: read-out: β-tubulin polymerization inhibition percentage
MDA-MB-231 cells [3] = assay: Cell cycle analysis by flow cytometry; assay type: cell-based, human
MDA-MB-231 cells [4] = assay: Annexin V-FITC/PI apoptosis assay by flow cytometry; assay type: cell-based, human; conditions: MDA-MB-231, 48 h, compound at its IC50
[5] = MDA-MB-231, 24 h, read-out: IC50 value (μM) MDA-MB-231
[6] = MDA-MB-231, read-out: IC50 against MDA-MB-231 cells

β-tubulin, sequence (P07437 whole entry): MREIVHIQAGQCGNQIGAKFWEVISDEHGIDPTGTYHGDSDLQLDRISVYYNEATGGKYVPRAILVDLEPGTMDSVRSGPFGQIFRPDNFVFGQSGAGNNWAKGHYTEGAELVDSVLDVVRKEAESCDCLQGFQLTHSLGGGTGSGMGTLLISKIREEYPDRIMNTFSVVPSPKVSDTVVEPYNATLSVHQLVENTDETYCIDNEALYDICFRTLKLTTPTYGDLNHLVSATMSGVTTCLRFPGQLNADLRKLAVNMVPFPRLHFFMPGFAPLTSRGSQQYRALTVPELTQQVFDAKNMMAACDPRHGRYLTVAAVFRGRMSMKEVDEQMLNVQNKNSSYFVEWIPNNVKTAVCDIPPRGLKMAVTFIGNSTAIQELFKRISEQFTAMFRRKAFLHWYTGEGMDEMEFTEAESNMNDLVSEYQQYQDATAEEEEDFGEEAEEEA
β-tubulin, sequence (P68363 whole entry): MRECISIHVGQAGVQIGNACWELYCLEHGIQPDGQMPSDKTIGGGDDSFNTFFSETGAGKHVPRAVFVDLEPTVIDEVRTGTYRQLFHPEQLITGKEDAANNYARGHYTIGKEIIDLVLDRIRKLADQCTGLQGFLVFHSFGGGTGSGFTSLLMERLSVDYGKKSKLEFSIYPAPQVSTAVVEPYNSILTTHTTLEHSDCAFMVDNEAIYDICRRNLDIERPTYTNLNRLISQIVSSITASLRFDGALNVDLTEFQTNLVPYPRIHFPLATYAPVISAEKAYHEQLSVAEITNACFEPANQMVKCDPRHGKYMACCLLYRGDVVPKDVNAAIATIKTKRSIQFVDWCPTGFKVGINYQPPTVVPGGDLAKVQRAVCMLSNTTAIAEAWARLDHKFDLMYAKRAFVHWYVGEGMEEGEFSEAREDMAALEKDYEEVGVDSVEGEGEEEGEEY

inhibition at 25 µM (β-tubulin)	SMILES	IC50 [1, 5]	other results
–	COc1ccc(C(=O)N/C(=C\c2ccc(Cl)cc2)C(=O)O)cc1OC [4a, (Z)-3-(4-Chlorophenyl)-2-(3,4-dimethoxybenzamido)acrylic Acid]	8.24 ± 0.37 µM	IC50 [1, 6]: 8.55 to 15.9 µM
80.1%	COc1cc(C(=O)N/C(=C\c2ccc(Cl)cc2)C(=O)O)cc(OC)c1OC [4b, (Z)-3-(4-Chlorophenyl)-2-(3,4,5-trimethoxybenzamido)acrylic Acid]	3.24 ± 0.13 µM	IC50 [2]: 23.3 ± 0.32 µM; mean tumor selectivity index ([2]; MCF-10A versus MDA-MB-231): 7.2; percentage of cells in G2/M phase (MDA-MB-231 cells [3]; MDA-MB-231, 48 h, compound at its IC50, untreated control 7.35%): 28.08%; cell accumulation at G2/M stage, times higher than untreated control (MDA-MB-231 cells [3]; MDA-MB-231, compound at its IC50): 3.82 times; late-secondary cellular apoptosis (MDA-MB-231 cells [4]; untreated control 0.24%): 12.62%; early primary apoptosis (MDA-MB-231 cells [4]; untreated control 0.69%): 8.09%
57.1%	COC(=O)/C(=C/c1ccc(Cl)cc1)NC(=O)c1ccc(OC)c(OC)c1 [5a, (Z)-Methyl 3-(4-Chlorophenyl)-2-(3,4-dimethoxybenzamido)acrylate]	4.84 ± 0.19 µM	–
–	CCOC(=O)/C(=C/c1ccc(Cl)cc1)NC(=O)c1ccc(OC)c(OC)c1 [5b, (Z)-Ethyl 3-(4-Chlorophenyl)-2-(3,4-dimethoxybenzamido)acrylate]	15.8 ± 0.41 µM	–
–	CCCOC(=O)/C(=C/c1ccc(Cl)cc1)NC(=O)c1ccc(OC)c(OC)c1 [5c, (Z)-Propyl 3-(4-Chlorophenyl)-2-(3,4-dimethoxybenzamido)acrylate]	14.3 ± 0.33 µM	–
–	CCCCOC(=O)/C(=C/c1ccc(Cl)cc1)NC(=O)c1ccc(OC)c(OC)c1 [5d, (Z)-Butyl 3-(4-Chlorophenyl)-2-(3,4-dimethoxybenzamido)acrylate]	45.9 ± 1.02 µM	IC50 [1, 6]: 45.8 µM
77.8%	COC(=O)/C(=C/c1ccc(Cl)cc1)NC(=O)c1cc(OC)c(OC)c(OC)c1 [5e, (Z)-Methyl 3-(4-Chlorophenyl)-2-(3,4,5-trimethoxybenzamido)acrylate]	4.03 ± 0.16 µM	IC50 [1, 6]: 4.06 µM
–	CCOC(=O)/C(=C/c1ccc(Cl)cc1)NC(=O)c1cc(OC)c(OC)c(OC)c1 [5f, (Z)-Ethyl 3-(4-Chlorophenyl)-2-(3,4,5-trimethoxybenzamido)acrylate]	11.6 ± 0.24 µM	–
–	CCCOC(=O)/C(=C/c1ccc(Cl)cc1)NC(=O)c1cc(OC)c(OC)c(OC)c1 [5g, (Z)-Propyl 3-(4-Chlorophenyl)-2-(3,4,5-trimethoxybenzamido)acrylate]	23.2 ± 0.4 µM	–
–	COc1cc(C(=O)N/C(=C\c2ccc(Cl)cc2)C(=O)OC(C)C)cc(OC)c1OC [5h, (Z)-Isopropyl 3-(4-Chlorophenyl)-2-(3,4,5-trimethoxybenzamido)acrylate]	25.2 ± 0.51 µM	–
–	CCCCOC(=O)/C(=C/c1ccc(Cl)cc1)NC(=O)c1cc(OC)c(OC)c(OC)c1 [5i, (Z)-Butyl 3-(4-Chlorophenyl)-2-(3,4,5-trimethoxybenzamido)acrylate]	28.1 ± 0.56 µM	–
89.8%	COc1ccc(/C=C\c2cc(OC)c(OC)c(OC)c2)cc1O [CA-4, combretastatin A-4, reference compound]	1.27 µM	IC50 [2]: 14.2 ± 0.29 µM
